# Test results: patent publication US20120295907A1, “INSECTICIDAL COMPOUNDS” (SYNGENTA CROP PROTECTION, LLC, priority 2009, published 2012)
# How the values were obtained:
# Format in all cases: in vivo
# [1] = system: Spodoptera littoralis; assay: Spodoptera littoralis (Egyptian Cotton Leafworm) cotton leaf disc spray test; conditions: foliar, 72 h, 200 ppm spray on cotton leaf discs, L1 larvae, mortality, feeding behavior, growth regulation 3 DAT
# [2] = system: Heliothis virescens; assay: Heliothis virescens (Tobacco Budworm) egg test on artificial diet; conditions: 96 h, 200 ppm (concentration in well 18 ppm), eggs 0-24 h old on artificial diet, 4 days, egg mortality, larval mortality, growth regulation
# [3] = system: Plutella xylostella; assay: Plutella xylostella (Diamond Back Moth) artificial diet MTP test; conditions: 144 h, 200 ppm (concentration in well 18 ppm), L2 larvae, 6 days, larval mortality, growth regulation
# [4] = system: Diabrotica balteata; assay: Diabrotica balteata (Corn Root Worm) artificial diet MTP test; conditions: 120 h, 200 ppm (concentration in well 18 ppm), L2 larvae, 5 days, larval mortality, growth regulation
Compound,pest or weed control at 200 ppm [1] [%],pest or weed control at 200 ppm [2] [%],pest or weed control at 200 ppm [3] [%],pest or weed control at 200 ppm [4] [%]
COc1c(NC(=O)c2ccc(-c3ccccn3)s2)cccc1C(=O)Nc1c(Cl)cc(C(F)(C(F)(F)F)C(F)(F)C(F)(F)F)cc1Br (stereo not shown) [B48],≥ 80,≥ 80,≥ 80,
COc1c(NC(=O)c2ccccc2OC(F)(F)F)cccc1C(=O)Nc1c(Cl)cc(C(F)(C(F)(F)F)C(F)(F)C(F)(F)F)cc1Cl (stereo not shown) [C16],,≥ 80,,
COc1c(NC(=O)c2ncc(C(F)(F)F)cc2Cl)cccc1C(=O)Nc1c(Cl)cc(C(F)(C(F)(F)F)C(F)(F)C(F)(F)F)cc1Br (stereo not shown) [B141],≥ 80,≥ 80,≥ 80,
COc1ccccc1C(=O)Nc1cccc(C(=O)Nc2c(Cl)cc(C(F)(C(F)(F)F)C(F)(F)C(F)(F)F)cc2Br)c1OC (stereo not shown) [B17],≥ 80,≥ 80,,
CCc1cc(C(F)(C(F)(F)F)C(F)(F)F)cc(C)c1NC(=O)c1cccc(NC(=O)c2ccc(C#N)cc2Cl)c1OC [J1],,,≥ 80,≥ 80
COc1c(NC(=O)c2cc(Cl)cc(C(F)(F)F)c2)cccc1C(=O)Nc1c(Cl)cc(C(F)(C(F)(F)F)C(F)(F)C(F)(F)F)cc1Br (stereo not shown) [B70],≥ 80,≥ 80,,
COc1c(NC(=O)c2csc(Cl)c2OC)cccc1C(=O)Nc1c(Cl)cc(C(F)(C(F)(F)F)C(F)(F)C(F)(F)F)cc1Br (stereo not shown) [B147],≥ 80,,,
COc1c(NC(=O)c2sccc2Br)cccc1C(=O)Nc1c(Cl)cc(C(F)(C(F)(F)F)C(F)(F)C(F)(F)F)cc1Br (stereo not shown) [B57],,,≥ 80,
COc1c(NC(=O)c2ncccn2)cccc1C(=O)Nc1c(Cl)cc(C(F)(C(F)(F)F)C(F)(F)C(F)(F)F)cc1Br (stereo not shown) [B71],≥ 80,,≥ 80,
COc1c(NC(=O)c2cc(Cl)cc(Cl)c2O)cccc1C(=O)Nc1c(Cl)cc(C(F)(C(F)(F)F)C(F)(F)C(F)(F)F)cc1Br (stereo not shown) [B160],,,≥ 80,
COc1c(NC(=O)c2cc(Cl)sc2Cl)cccc1C(=O)Nc1c(Cl)cc(C(F)(C(F)(F)F)C(F)(F)C(F)(F)F)cc1Br (stereo not shown) [B186],≥ 80,,,
COc1c(NC(=O)c2cc(Cl)ccc2F)cccc1C(=O)Nc1c(C)cc(C(F)(C(F)(F)F)C(F)(F)C(F)(F)F)cc1C (stereo not shown) [F12],≥ 80,≥ 80,,≥ 80
COc1c(NC(=O)c2ccc(Cl)cc2F)cccc1C(=O)Nc1c(C)cc(C(F)(C(F)(F)F)C(F)(F)C(F)(F)F)cc1C (stereo not shown) [F13],≥ 80,≥ 80,,
COc1c(NC(=O)c2ccco2)cccc1C(=O)Nc1c(Cl)cc(C(F)(C(F)(F)F)C(F)(F)C(F)(F)F)cc1Br (stereo not shown) [B12],≥ 80,≥ 80,≥ 80,
COc1cccc(OC)c1C(=O)Nc1cccc(C(=O)Nc2c(Cl)cc(C(F)(C(F)(F)F)C(F)(F)C(F)(F)F)cc2Br)c1OC (stereo not shown) [B164],,,≥ 80,
COc1c(NC(=O)c2cn(C)nc2C(F)(F)F)cccc1C(=O)Nc1c(Cl)cc(C(F)(C(F)(F)F)C(F)(F)C(F)(F)F)cc1Br (stereo not shown) [B152],≥ 80,≥ 80,≥ 80,
COc1c(NC(=O)c2cccc(C)c2C)cccc1C(=O)Nc1c(C)cc(C(F)(C(F)(F)F)C(F)(F)C(F)(F)F)cc1C (stereo not shown) [F11],,,≥ 80,
COc1c(NC(=O)c2ccc(F)c([N+](=O)[O-])c2)cccc1C(=O)Nc1c(Cl)cc(C(F)(C(F)(F)F)C(F)(F)C(F)(F)F)cc1Br (stereo not shown) [B77],≥ 80,≥ 80,≥ 80,
COc1c(NC(=O)c2ccc(-n3cccc3)cc2)cccc1C(=O)Nc1c(Cl)cc(C(F)(C(F)(F)F)C(F)(F)C(F)(F)F)cc1Br (stereo not shown) [B30],≥ 80,≥ 80,,≥ 80
COc1ccccc1C(=O)Nc1cccc(C(=O)Nc2c(Cl)cc(C(F)(C(F)(F)F)C(F)(F)C(F)(F)F)cc2Cl)c1OC (stereo not shown) [C17],,≥ 80,,
COc1c(NC(=O)c2ccc(-c3csnn3)cc2)cccc1C(=O)Nc1c(Cl)cc(C(F)(C(F)(F)F)C(F)(F)C(F)(F)F)cc1Br (stereo not shown) [B31],≥ 80,≥ 80,≥ 80,
COc1c(NC(=O)c2c(C)nn(C)c2Cl)cccc1C(=O)Nc1c(Cl)cc(C(F)(C(F)(F)F)C(F)(F)C(F)(F)F)cc1Br (stereo not shown) [B142],≥ 80,,,
